Bounds are passed on as bounds.

Data set [1] relates to Ba/F3-EML4-ALK-G1202R/L1196M. As to the kind of experiment: Anti-proliferative activity test on Ba/F3 cell lines (CellTiter-Glo). The format is cell-based. On the procedure: (§1) • (1) Cell culture: The cell lines were cultured in an incubator at 37°C with 5% CO2. Regular passaging was performed, and cells in the logarithmic growth phase were selected for plating; • (2) Preparation of compound storage plate: The test compounds were prepared into a 10 mM solution with DMSO (Stock Con.); The compounds were then prepared into a 1 mM solution with DMSO (Work Con.); 1 µL of the stock solution was mixed with 9 µL of DMSO to prepare a 10 µL work solution. • (3) Preparation of 1000× compound storage plate (tube): The compounds were 3-fold serially diluted from […] to the lowest concentration, for a total of 8 concentrations; • (4) Preparation of 20× compound working solution: 98 µL of cell culture medium was added to a flat-bottomed 96-well transparent drug plate. From the 1000× compound storage plate, 2 µL of the compound was pipetted into the cell culture medium in the 96-well transparent drug plate. In the solvent control, 2 µL of DMSO was added. After the compound or DMSO was added, the mixture was homogenized using a pipette. • (5) Cells were stained with trypan blue and viable cells were counted to ensure a cell viability of 90% or more. The cell concentration was adjusted to an appropriate concentration; • (6) 95 µL of cell suspension (2000 cells/well) was added to each well of the compound assay cell plate, and cell-free culture medium containing 0.1% DMSO was added to the Min control wells; • (7) Administration in the compound assay cell plate: 5 µL of 20× compound working solution was added to the cell culture plate, 5 µL of DMSO-cell culture medium mixture was added to the Max control wells, and the final concentration of DMSO was 0.1%; • (8) The culture plate was then incubated in an incubator at 37°C with 5% CO2 for 72 hours; • (9) The following operations were conducted in accordance with the instructions of the Promega CellTiter-Glo Luminescent Cell Viability Assay Kit (Promega-G7573): CellTiter-Glo buffer was thawed and brought to room temperature; CellTiter-Glo substrate was brought to room temperature; CellTiter-Glo buffer was added to a bottle of CellTiter-Glo substrate to dissolve the substrate, thereby preparing CellTiter-Glo working solution; The mixture was slowly vortexed and shaken to be fully dissolved; The cell culture plate was removed and allowed to equilibrate to room temperature for 10 minutes; 50 µL (equal to half the volume of cell culture medium in each well) of CellTiter-Glo working solution was added to each well; The culture plate was shaken on an orbital shaker for 2 minutes to induce cell lysis; The plate was then left at room temperature for 10 minutes to stabilize the luminescent signal; The luminescent signal was detected using a SpectraMax Paradigm plate reader; Cell viability assay was conducted using CellTiter-Glo luminescence method.
(§2) Data analysis: The corresponding […] value (RLU) for each well was obtained from SpectraMax Paradigm readings. […] The inhibition rates corresponding to compounds at different concentrations were calculated in Excel, and the inhibition rate curves were plotted using GraphPad Prism software to calculate relevant parameters, including the maximum and minimum inhibition rates of the cells and the IC50 value.

A further data set deals with Ba/F3-TEL-TRKB. The data set is described as above. The data set is classed as cell-based. As to conditions: Mus musculus, BaF3; 72 hours; read-out: Half maximal inhibitory concentration IC50 for cells Ba/F3-TEL-TRKB. On the procedure:
as §1, §2

Data set [2] deals with T1, TRKB (Homo sapiens, UniProt Q16620).
T1 construct: purchased Carna
As to the kind of experiment: In vitro kinase inhibitory activity assay, Experimental method 2 (ADP-Glo). As to conditions: Experimental method 2; ATP 5.0 µM, substrate PolyE4Y1; read-out: Kinase half maximal inhibitory concentration IC50 TRKB. The data set is classed as biochemical. The protocol:
(§3) The kinase inhibitory activity assays of the compounds against ALK, ALK^L1196M, ALK^G1202R, ALK^G1202R/L1196M, ROS1, and TRKB were conducted at Wuhan Heyan Biotechnology Co., Ltd. or Hefei PreceDo Biotechnology Co., Ltd.
(§4) Experimental materials: ALK (G1202R/L1196M) Active and TRKB were purchased from Carna; IGF1 was purchased from GenScript; PolyE4Y1 was purchased from SIGMA; ADP-Glo™ Reagent was purchased from Promega; ATP was purchased from Promega; Kinase Detection Reagent was purchased from Promega; microplate reader ( PerkinElmer).
TRKB reaction concentration 4.47 nM, ATP concentration 5.0 µM, substrate PolyE4Y1 concentration 0.2 µg/µL. TRKB kinase buffer was 40 mM Tris-HCl (pH 7.5) + 20 mM magnesium chloride + 2.5 mM manganese chloride + 0.1mg/mL BSA+ 50 µM DTT.
(§5) ALK(G1202R/L1196M) and TRKB detection method: 2 µL of kinase and 1 µL of compound were added to a 384-well plate; 2 µL of substrate/ATP mixture was added and incubated at room temperature in the dark for 60 minutes; 5 µL of ADP-Glo™ reagent was added and incubated at room temperature for 40 minutes; 10 µL of kinase detection reagent was added and incubated at room temperature for 30 minutes; the plate was read on a microplate reader, and luminescence was recorded (integration time set to 0.5 seconds).
(§6) The IC50 value could then be derived by performing a curve fit using a four-parameter logistic model (obtained using the "log(inhibitor) vs. response -- Variable slope" mode in GraphPad Prism).
For orientation: ADP-Glo turns the ADP formed in a reaction into a luminescent signal.

The target in data set [3] is T2, ALK(G1202R/L1196M) (Homo sapiens, UniProt Q9UM73, G1202R/L1196M).
T2 construct: purchased Carna
The data set is described as above. The format is biochemical. As to conditions: Experimental method 2; ATP 5.0 µM, substrate IGF1; read-out: Kinase half maximal inhibitory concentration IC50 ALK^G1202R/L1196M. The protocol:
as §3, §4
Reaction system: ALK(G1202R/L1196M) reaction concentration 8.63 nM, ATP concentration 5.0 µM, substrate IGF1 concentration 0.2 µg/µL. ALK(G1202R/L1196M) kinase buffer was 40 mM Tris-HCl (pH 7.5) + 20 mM magnesium chloride + 0.1 mg/mL BSA + 50 µM DTT.
as §5, §6

A short description of data set [4]: HMS CLint (liver) test, hepatocyte metabolic stability. As to conditions: 0.5 × 10^6 cells/mL, up to 90 minutes. The format is in vitro ADME. The protocol: The metabolic stability of the compounds of the present disclosure was tested in human and mouse hepatocytes.
• (1) Test compound (10 mM); Control: 7-ethoxycoumarin (30 mM), 7-hydroxycoumarin (reference substance, 30 mM); • Mouse hepatocytes with cell viability of 73.8%, supplier Cat No.: BioreclamationIVTM005052; • Human hepatocytes with cell viability of 94.6%, supplier Cat No.: Bioreclamation IVTX008001. • (2) Buffer system: Thawing medium: Williams' medium E containing 5% fetal bovine serum, 30% Percoll solution, and other auxiliary materials.
Incubation medium: Williams' medium E (without phenol red) containing 2 mM L-glutamine and 25 mM 4-(2-hydroxyethyl)-1-piperazineethanesulfonic acid.
Stop solution: acetonitrile containing 200 ng/mL tolbutamide and labetalol as internal standard. […]
The residual rates of the test compound and the control compound were determined using the following formula: Residual rate (%) = (Peak area ratio of compound to internal standard at any time point)/(Peak area ratio of compound to internal standard at 0 minutes) × 100% [formula]
The elimination rate constant (k) of the test compound and the control compound in hepatocytes was calculated by plotting the logarithm of the residual rate against time. […]

Data set [5] has as its target T2, ALK(G1202R/L1196M). As to the kind of experiment: In vitro kinase inhibitory activity assay, Experimental method 1 (ADP-Glo). The format is biochemical. As to conditions: final ATP 50 µM, read-out: Kinase half maximal inhibitory concentration IC50 ALK^G1202R/L1196M. On the procedure:
as §3
(§7) Experimental materials: ALK Active, ALK(L1196M) Active, ALK(G1202R) Active, and ALK(G1202R/L1196M) Active were purchased from Carna; SRC Substrate was purchased from SignalChem; IGF1R tide was purchased from SignalChem; ADP-Glo Kinase Assay was purchased from Promega; Kinase assay buffer III was purchased from SignalChem; and Nivo multimode plate reader (PerkinElmer).
(§8) Each concentration of the compounds was further diluted 20-fold using 1X kinase buffer to prepare compound working solutions containing 5% DMSO. 1 µL of each concentration gradient working solution was added to a microplate, with duplicate wells set for each concentration. 2 µL of ALK enzyme (15 ng per well) and 2 µL of a mixture of substrate and ATP (25 µM ATP, 0.5 µg/µL SRC Substrate) were added to the microplate. […] The reaction system was placed at 25°C for 1 hour. After the reaction, 5 µL of ADP-Glo reagent was added to each well and reacted at 25°C for another 40 minutes. After the reaction, 10 µL of kinase detection reagent was added to each well and reacted at 25°C for 30 minutes. Chemiluminescence was then measured using the PerkinElmer Nivo multimode plate reader with an integration time of 0.5 seconds.
ALK (G1202R/L1196M) kinase inhibition assay method: The preparation method for the working solution of the test compound was the same as for the ALK kinase. […] The subsequent steps were the same as for ALK kinase.
as §6

The target of another data set is T3, ALK(G1202R) (Homo sapiens, UniProt Q9UM73, G1202R).
T3 construct: purchased Carna
The description is as above. The format is biochemical. As to conditions: final ATP 50 µM, read-out: Kinase half maximal inhibitory concentration IC50 ALK^G1202R. The protocol: as §3, §7, §8
ALK (G1202R) kinase inhibition assay method: The preparation method for the working solution of the test compound was the same as for the ALK kinase. […] The subsequent steps were the same as for ALK kinase.
as §6

Data set [6] addresses T1, TRKB. The data set is described as above. The format is biochemical. As to conditions: read-out: Kinase half maximal inhibitory concentration IC50 TRKB. On the procedure:
as §3, §7, §8
TRKB kinase inhibition assay method: The preparation method for the working solution of the test compound was the same as for the ALK kinase. 2 µL of TRKB (0.5 ng per well) and 4 µL of a mixture of substrate and ATP (5 µM ATP, 0.5 µM SRC Substrate) were added to the microplate. […] The subsequent steps were the same as for ALK kinase.
as §6

Another data set concerns the target ROS1 (Homo sapiens, UniProt P08922). The description is as above. The format is biochemical. As to conditions: read-out: Kinase half maximal inhibitory concentration IC50 ROS1. The protocol: as §3, §7
as §8, with “After the reaction, 10 µL of kinase detection reagent was added to each well and reacted at 25°C for 30 minutes.” left out, “seconds. […]” for “seconds.”

The target of another data set is T4, ALK(L1196M) (Homo sapiens, UniProt Q9UM73, L1196M).
T4 construct: purchased Carna
Described as above. The data set is classed as biochemical. As to conditions: final ATP 50 µM, read-out: Kinase half maximal inhibitory concentration IC50 ALK^L1196M. On the procedure: as §3, §7
as §8, with “After the reaction, 10 µL of kinase detection reagent was added to each well and reacted at 25°C for 30 minutes.” left out, “seconds. […]” for “seconds.”

The next data set deals with T5, ALK (Homo sapiens, UniProt Q9UM73).
T5 construct: purchased Carna
The description is as above. The format is biochemical. As to conditions: final ATP 10 µM, read-out: Kinase half maximal inhibitory concentration IC50 ALK. The protocol:
as §3, §7
as §8, with “After the reaction, 10 µL of kinase detection reagent was added to each well and reacted at 25°C for 30 minutes.” left out, “seconds. […]” for “seconds.”

T2 sequence (Q9UM73 19-1620 L1196M/G1202R): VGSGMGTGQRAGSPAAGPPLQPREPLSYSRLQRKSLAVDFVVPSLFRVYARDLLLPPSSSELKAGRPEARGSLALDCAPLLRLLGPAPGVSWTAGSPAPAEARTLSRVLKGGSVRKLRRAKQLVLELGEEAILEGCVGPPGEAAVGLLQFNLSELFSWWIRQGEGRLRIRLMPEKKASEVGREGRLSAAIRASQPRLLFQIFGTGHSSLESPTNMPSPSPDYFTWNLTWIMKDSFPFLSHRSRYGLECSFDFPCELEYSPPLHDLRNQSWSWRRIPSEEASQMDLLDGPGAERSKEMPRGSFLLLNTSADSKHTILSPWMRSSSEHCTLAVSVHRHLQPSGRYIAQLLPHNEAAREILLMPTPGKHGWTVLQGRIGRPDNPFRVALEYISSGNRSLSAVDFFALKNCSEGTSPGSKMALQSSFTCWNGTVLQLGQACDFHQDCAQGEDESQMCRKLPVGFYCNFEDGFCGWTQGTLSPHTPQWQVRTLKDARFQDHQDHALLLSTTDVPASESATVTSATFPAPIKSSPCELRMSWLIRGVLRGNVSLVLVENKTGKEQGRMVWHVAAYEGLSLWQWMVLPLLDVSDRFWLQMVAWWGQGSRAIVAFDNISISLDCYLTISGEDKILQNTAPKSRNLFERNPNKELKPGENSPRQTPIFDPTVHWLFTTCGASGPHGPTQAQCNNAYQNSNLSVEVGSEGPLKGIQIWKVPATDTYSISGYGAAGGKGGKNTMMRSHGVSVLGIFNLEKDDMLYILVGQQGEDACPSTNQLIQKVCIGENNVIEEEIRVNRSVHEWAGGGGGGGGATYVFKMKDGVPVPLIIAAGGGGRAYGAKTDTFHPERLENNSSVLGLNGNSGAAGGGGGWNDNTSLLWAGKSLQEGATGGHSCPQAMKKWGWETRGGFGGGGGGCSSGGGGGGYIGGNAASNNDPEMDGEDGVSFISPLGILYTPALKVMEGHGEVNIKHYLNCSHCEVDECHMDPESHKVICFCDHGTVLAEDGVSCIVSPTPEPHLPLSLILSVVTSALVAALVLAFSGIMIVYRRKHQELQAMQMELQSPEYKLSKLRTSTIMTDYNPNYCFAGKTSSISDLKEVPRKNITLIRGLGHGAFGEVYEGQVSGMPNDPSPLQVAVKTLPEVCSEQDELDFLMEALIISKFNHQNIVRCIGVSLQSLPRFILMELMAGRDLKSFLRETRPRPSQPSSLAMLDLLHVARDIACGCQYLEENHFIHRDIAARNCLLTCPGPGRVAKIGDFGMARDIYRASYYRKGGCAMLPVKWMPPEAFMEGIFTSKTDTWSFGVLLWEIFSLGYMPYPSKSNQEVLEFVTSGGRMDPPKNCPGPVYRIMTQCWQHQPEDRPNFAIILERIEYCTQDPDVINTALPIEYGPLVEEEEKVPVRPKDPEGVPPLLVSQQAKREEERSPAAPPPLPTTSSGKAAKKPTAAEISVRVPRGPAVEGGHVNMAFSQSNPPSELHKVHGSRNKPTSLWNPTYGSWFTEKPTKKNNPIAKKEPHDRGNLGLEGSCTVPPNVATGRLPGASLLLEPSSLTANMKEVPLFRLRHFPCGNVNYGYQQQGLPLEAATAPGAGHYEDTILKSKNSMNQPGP
T1 sequence (Q16620 32-822): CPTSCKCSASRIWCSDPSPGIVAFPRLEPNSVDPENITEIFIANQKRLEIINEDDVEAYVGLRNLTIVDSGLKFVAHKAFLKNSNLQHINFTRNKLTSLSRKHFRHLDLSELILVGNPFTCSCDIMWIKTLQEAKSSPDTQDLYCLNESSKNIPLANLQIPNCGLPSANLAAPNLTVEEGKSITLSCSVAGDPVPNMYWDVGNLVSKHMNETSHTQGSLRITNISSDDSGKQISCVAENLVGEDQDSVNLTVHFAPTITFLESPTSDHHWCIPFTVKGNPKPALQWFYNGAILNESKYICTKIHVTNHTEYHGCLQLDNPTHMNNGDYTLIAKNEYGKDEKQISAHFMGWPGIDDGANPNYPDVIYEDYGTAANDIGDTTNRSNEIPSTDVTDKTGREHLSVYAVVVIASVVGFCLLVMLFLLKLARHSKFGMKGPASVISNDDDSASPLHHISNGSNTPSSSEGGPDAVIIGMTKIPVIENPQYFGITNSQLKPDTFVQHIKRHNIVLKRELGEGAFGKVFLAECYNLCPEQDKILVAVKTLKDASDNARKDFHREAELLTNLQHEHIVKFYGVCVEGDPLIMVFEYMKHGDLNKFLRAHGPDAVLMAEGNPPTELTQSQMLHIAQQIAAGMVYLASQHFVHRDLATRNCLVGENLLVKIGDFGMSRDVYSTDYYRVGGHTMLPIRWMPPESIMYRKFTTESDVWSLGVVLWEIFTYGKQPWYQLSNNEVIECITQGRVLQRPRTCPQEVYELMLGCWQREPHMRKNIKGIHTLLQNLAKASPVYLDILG
Chain of ROS1 (P08922 28-2347): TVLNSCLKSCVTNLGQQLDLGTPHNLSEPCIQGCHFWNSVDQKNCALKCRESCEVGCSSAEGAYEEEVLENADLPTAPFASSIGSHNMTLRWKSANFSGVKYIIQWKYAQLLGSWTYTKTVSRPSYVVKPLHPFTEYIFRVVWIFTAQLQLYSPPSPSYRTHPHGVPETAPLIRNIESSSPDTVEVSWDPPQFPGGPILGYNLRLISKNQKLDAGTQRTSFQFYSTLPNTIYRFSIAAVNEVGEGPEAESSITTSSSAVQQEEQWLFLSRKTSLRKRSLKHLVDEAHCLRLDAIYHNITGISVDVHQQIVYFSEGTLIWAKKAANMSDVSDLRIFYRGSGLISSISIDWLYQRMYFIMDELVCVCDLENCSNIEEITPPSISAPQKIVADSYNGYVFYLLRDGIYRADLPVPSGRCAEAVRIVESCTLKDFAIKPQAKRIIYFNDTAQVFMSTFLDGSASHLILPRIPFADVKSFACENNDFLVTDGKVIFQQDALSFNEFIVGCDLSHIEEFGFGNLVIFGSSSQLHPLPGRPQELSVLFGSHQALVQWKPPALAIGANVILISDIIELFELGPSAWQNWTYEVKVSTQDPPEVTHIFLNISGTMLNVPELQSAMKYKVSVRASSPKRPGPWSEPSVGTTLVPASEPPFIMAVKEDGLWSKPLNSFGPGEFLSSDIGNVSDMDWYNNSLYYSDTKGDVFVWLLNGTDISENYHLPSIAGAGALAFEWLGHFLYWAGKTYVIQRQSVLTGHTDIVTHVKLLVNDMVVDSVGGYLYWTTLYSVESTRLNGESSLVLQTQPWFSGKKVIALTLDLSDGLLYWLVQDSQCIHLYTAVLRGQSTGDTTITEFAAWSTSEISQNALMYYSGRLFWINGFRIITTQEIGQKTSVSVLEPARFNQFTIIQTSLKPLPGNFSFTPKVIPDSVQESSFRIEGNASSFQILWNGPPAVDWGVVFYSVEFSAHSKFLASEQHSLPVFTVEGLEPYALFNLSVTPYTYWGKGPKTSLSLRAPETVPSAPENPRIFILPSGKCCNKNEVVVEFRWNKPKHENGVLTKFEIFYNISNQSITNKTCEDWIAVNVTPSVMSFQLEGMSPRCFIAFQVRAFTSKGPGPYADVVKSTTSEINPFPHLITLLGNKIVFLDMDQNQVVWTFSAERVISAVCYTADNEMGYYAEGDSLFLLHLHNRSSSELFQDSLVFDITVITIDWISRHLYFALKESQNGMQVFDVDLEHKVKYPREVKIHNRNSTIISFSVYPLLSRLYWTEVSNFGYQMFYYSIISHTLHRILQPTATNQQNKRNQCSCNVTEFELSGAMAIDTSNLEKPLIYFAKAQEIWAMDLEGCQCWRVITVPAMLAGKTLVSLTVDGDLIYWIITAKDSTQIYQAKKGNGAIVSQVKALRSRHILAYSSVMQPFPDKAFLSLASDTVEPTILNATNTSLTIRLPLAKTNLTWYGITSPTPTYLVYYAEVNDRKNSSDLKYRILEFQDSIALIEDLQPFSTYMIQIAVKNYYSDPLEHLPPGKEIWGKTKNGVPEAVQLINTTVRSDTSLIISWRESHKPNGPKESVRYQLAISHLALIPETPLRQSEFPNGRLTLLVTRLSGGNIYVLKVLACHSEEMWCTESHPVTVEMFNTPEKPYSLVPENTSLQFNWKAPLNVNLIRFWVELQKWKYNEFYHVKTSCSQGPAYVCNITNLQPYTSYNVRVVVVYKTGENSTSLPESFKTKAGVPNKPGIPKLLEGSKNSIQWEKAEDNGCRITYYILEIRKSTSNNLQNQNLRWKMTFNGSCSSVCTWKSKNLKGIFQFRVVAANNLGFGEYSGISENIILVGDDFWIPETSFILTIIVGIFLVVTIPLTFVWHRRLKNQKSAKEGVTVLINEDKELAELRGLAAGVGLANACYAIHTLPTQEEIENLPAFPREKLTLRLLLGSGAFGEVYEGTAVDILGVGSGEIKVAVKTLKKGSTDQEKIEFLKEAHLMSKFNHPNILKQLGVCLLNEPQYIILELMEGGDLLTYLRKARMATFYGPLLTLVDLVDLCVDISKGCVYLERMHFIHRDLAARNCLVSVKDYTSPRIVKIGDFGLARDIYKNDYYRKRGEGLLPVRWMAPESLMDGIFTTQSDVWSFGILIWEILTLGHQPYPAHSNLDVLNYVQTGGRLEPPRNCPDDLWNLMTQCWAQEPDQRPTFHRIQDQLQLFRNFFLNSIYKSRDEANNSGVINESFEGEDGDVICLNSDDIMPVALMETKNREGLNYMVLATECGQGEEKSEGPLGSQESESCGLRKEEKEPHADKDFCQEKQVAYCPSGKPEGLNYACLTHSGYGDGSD
T3 sequence (Q9UM73 19-1620 G1202R): as the sequence (Q9UM73 19-1620 L1196M/G1202R) above, with M1178L counted along it
T4 sequence (Q9UM73 19-1620 L1196M): as the sequence (Q9UM73 19-1620 L1196M/G1202R) above, with R1184G counted along it
T5 sequence (Q9UM73 19-1620): as the sequence (Q9UM73 19-1620 L1196M/G1202R) above, with M1178L, R1184G counted along it

On to `CC#Cc1nn2cc3c4nc2c1C(=O)NC(C)(C)COc1ccc(F)cc1CN4[C@H](C(F)F)CO3` [Compound 018], for which the IC50 was determined as 1.1 nM in [1] (Ba/F3 EML4-ALK-G1202R-L1196M, 72 hours, read-out: Half maximal inhibitory concentration IC50 for cells Ba/F3-EML4-ALK-G1202R/L1196 M); 6.9 nM with Ba/F3-TEL-TRKB; 4.9 nM at TRKB [2]; 0.7 nM at ALK(G1202R/L1196M) [3]. Also, the “selectivity: inhibition against ALK-mutant cells versus TRKB phenotypic cells” value in data set [1] (stronger inhibition of ALK-mutant cells, relatively weaker of TRKB phenotypic cells) is recorded as “excellent selectivity”. Also, the CLint scaled in data set [4] (Human hepatocytes) is less than 17.8 mL/min/kg; in data set [4] (Mouse hepatocytes), 291 mL/min/kg.

Consider `CON=C1NC(C)(C)COc2ncc(F)cc2CN2c3nc4c1cnn4cc3OC[C@H]2C(F)F` [Compound 005], for which the IC50 at ALK(G1202R/L1196M) [5] is 5.2 nM; at ALK(G1202R) it was 3.8 nM; at TRKB [6] it was 1.2 nM; at ROS1, 0.6 nM.

Regarding `CON=C1NC(C)(C)COc2ccc(F)cc2CN2c3nc4c1cnn4cc3OC[C@H]2C(F)F` [Compound 001], the IC50 at ALK(L1196M) is 12.8 nM; at ALK(G1202R/L1196M) [5], 12.4 nM; at ALK(G1202R) it was 16.9 nM; on TRKB [6], 2.2 nM; on ALK, 22.2 nM; on ROS1, 17.3 nM.

By CLint scaled is commonly meant the rate of metabolic loss divided by the concentration. The low end stands for greater metabolic stability, the high end for faster metabolism.

These data come from patent EP4559919A1, “TRICYCLIC-CONTAINING MACROCYCLIC COMPOUND AND USE THEREOF” (Medshine Discovery Inc., priority 2022, dated 2024).
